Results taken from PMC10343299, “S-Ethyl-Isothiocitrullin-Based Dipeptides and 1,2,4-Oxadiazole Pseudo-Dipeptides: Solid Phase Synthesis and Evaluation as NO Synthase Inhibitors” (Molecules, 2023).
Like-named read-outs stand apart in the source and are kept apart here.

Tests used:
rat nNOS = target: T1, rat nNOS (Rattus norvegicus, UniProt P29476); experiment: NOS inhibition, oxyhemoglobin (hemoglobin capture) test, recombinant nNOS; type: biochemical
T1 construct: Full-length recombinant rat nNOS, mouse iNOS, bovine eNOS; made in house; host or cells: Escherichia coli
Protocol: (§1) The inhibitory effects of all compounds against the three recombinant NOSs (rat nNOS, mouse iNOS, and bovine eNOS) were evaluated in 96-well plates using the oxyhemoglobin test. A first screening at 100 and 10 μM was performed, and the IC50 values were measured for compounds showing more than 50% inhibition at 100 μM (Table 1 and Table 2).
(§2) Full-length recombinant rat nNOS, mouse iNOS, bovine eNOS, and the heme domains of rat brain nNOS and mouse iNOS were expressed in Escherichia coli and purified as described previously.
(§3) NOS catalytic activity was measured using the hemoglobin capture assay. The test was performed at 30 °C in 96-well microplates using a final volume of 200 µL. The assay mixture contained 100 µM NADPH, 10 µM BH4, 6 µM HbO2, 100 µM DTT, 5 µM FAD, 5 µM FMN, 10 µM (nNOS and eNOS), or 20 µM (iNOS) arginine, all in a 100 mM Hepes buffer, pH 7.5, and, for constitutive n- and e-NOS, 10 µg/mL calmodulin, and 1 mM CaCl2. The studied compounds were introduced as 2 μL of ×100 concentrated solutions in DMSO, and the control experiments were performed with DMSO or the buffer only. The kinetics of NO production were measured at 401 nm using an Infinite F500 microplate reader (Tecan, Singapore).

mouse iNOS = target: T2, mouse iNOS (Mus musculus, UniProt P29477); experiment: NOS inhibition, oxyhemoglobin (hemoglobin capture) test, recombinant iNOS; type: biochemical; conditions: recombinant enzyme, 20 µM arginine, triplicate, NI = <50% inhibition at 100 μM
T2 construct: Full-length recombinant rat nNOS, mouse iNOS, bovine eNOS; made in house; host or cells: Escherichia coli
T2 sequence (P29477 1-1144): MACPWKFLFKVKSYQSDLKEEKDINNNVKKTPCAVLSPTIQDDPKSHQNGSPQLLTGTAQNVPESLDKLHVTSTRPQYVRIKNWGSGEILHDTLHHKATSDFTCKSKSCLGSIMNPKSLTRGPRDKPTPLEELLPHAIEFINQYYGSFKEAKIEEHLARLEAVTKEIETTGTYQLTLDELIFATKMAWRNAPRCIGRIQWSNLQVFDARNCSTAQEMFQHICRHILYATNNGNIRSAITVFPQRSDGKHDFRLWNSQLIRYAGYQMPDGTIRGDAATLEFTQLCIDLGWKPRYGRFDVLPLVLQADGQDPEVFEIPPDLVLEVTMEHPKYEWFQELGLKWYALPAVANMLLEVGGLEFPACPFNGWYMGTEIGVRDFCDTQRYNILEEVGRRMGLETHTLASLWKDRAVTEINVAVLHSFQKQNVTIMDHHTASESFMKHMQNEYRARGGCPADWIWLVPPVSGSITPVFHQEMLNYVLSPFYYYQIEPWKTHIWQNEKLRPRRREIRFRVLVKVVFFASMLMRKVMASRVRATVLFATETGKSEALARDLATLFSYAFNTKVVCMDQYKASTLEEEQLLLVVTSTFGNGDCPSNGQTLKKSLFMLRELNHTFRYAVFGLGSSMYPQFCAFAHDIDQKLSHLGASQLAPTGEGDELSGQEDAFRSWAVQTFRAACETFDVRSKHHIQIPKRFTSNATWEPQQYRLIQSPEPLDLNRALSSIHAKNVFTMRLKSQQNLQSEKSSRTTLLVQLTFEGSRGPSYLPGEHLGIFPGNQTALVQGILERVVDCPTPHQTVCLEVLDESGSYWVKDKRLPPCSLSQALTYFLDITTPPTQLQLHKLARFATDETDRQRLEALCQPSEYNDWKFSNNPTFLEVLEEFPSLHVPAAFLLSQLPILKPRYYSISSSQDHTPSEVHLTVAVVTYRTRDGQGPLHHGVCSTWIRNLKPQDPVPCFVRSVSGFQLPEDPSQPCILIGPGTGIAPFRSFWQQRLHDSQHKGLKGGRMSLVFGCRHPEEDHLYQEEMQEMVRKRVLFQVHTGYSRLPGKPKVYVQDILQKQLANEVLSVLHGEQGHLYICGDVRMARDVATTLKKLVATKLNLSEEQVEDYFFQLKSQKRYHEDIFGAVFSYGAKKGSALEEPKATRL
Protocol: as §1, §2, §3

bovine eNOS = target: T3, bovine eNOS (Bos taurus, UniProt P29473); experiment: NOS inhibition, oxyhemoglobin (hemoglobin capture) test, recombinant eNOS; type: biochemical; conditions: recombinant enzyme, 10 µM arginine, triplicate, NI = <50% inhibition at 100 μM; for inhibition at 100 µM: read-out: IC50 (μM) eNOS (Bovine)
T3 construct: Full-length recombinant rat nNOS, mouse iNOS, bovine eNOS; made in house; host or cells: Escherichia coli

RAW 264.7 cells = experiment: Cell viability, MTT assay; type: cell-based, murine; conditions: for Effect on cell viability (MTT): up to 100 μM
Protocol: Cell viability was evaluated in the murine macrophage RAW 264.7 cells using an MTT assay for compounds 18, 21, 26, and 30. This experiment was performed without or with LPS (1 µg/mL), which induces iNOS expression (Figure S1). […] Compound 30 only killed 20% of the cells at 500 μM (Figure S1A). In the presence of LPS (1 µg/mL), cell viability was reduced by 30% due to the inhibition by NO of key enzymes involved in cell metabolism (Figure S1B).
The macrophage cell line RAW 264.7 (a gift from Dr. A. Blangy, Montpellier, France) was cultured in Dulbecco’s Modified Eagle’s Medium (DMEM) supplemented with 10% FCS, 100 units/mL penicillin, 100 µg/mL streptomycin, and 2 mM L-glutamine.
Cellular NO production was measured using the Griess reagent (Sigma-Aldrich), which evaluates the nitrite content in culture media. Cellular toxicity was estimated by the MTT assay (Sigma-Aldrich) in RAW 264.7 cells after the induction (or not) of iNOS by LPS, according to the manufacturer’s recommendations.

[1] = dipeptide-like series, recombinant enzyme, 10 µM arginine, triplicate, NI = <50% inhibition at 100 μM
[2] = 1,2,4-oxadiazole series, recombinant enzyme, 10 µM arginine, triplicate, NI = <50% inhibition at 100 μM

T3 sequence (P29473 whole entry): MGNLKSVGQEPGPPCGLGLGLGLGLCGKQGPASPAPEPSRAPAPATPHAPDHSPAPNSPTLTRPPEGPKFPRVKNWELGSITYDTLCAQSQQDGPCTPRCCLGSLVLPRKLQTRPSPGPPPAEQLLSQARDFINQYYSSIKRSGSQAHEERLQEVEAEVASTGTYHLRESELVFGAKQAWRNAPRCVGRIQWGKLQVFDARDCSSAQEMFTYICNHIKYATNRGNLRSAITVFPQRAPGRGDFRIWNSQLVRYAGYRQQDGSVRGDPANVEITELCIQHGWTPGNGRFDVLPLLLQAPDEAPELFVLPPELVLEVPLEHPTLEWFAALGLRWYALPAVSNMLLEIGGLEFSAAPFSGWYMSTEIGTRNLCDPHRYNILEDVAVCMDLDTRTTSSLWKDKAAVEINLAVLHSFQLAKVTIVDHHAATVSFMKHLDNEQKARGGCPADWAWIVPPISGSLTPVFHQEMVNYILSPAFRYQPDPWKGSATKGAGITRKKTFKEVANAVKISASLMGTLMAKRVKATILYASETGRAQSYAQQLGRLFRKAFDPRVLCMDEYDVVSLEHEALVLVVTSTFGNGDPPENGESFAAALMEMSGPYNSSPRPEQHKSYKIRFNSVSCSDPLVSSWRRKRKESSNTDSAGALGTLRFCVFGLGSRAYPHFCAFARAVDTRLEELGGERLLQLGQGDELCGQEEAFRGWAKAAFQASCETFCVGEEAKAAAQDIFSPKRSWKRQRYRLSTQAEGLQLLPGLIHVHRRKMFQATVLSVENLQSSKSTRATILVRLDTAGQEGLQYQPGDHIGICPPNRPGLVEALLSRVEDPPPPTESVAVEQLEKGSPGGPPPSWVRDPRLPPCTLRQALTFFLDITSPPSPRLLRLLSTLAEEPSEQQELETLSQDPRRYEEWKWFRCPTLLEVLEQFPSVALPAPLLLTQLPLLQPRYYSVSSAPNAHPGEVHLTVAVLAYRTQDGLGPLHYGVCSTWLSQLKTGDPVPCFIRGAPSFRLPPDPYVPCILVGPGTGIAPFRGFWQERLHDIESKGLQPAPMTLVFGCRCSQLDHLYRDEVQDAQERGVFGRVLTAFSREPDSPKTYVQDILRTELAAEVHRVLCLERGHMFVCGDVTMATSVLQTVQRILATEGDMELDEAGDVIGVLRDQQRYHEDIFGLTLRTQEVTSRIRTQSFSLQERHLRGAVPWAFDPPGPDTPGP
T1 sequence (P29476 whole entry): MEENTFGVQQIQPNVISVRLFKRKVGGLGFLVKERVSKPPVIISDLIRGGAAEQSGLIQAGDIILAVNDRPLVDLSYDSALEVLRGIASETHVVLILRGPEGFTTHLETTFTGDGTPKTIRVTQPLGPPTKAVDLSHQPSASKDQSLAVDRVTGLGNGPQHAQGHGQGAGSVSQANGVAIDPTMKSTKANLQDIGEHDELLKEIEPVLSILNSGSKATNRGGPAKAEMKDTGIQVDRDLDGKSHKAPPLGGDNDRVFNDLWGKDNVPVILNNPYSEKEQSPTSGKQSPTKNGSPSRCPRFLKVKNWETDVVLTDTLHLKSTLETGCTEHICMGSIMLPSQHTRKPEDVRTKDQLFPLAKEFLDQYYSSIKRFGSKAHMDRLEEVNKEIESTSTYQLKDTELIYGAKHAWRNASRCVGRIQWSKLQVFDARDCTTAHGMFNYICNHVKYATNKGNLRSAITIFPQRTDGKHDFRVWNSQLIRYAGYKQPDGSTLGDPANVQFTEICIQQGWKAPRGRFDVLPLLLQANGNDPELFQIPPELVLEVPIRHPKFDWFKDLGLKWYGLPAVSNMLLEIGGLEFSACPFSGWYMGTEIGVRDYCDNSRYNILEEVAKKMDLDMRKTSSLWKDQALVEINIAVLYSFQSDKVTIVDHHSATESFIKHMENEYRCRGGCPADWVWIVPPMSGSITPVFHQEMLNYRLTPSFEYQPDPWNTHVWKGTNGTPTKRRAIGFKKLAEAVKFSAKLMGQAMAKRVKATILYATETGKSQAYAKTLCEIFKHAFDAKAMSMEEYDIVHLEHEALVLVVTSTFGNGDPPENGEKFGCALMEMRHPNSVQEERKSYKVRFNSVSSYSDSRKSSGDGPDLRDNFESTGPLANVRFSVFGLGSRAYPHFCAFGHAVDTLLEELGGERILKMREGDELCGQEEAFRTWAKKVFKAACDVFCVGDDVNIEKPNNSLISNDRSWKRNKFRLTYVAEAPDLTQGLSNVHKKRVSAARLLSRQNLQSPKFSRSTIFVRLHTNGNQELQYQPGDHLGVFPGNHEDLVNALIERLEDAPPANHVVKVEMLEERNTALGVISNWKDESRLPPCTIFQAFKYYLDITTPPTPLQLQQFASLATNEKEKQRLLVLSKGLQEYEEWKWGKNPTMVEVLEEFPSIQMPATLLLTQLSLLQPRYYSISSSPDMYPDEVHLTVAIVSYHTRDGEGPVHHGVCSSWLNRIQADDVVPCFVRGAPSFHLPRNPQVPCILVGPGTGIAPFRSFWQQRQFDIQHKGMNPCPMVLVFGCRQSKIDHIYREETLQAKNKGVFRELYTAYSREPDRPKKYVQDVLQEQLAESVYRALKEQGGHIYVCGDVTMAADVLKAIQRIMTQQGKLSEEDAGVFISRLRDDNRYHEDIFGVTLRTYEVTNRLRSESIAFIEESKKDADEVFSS

Row | Compound | IC50 (rat nNOS; [1]) [µM] | IC50 (mouse iNOS; dipeptide-like series) [µM] | inhibition at 100 µM (bovine eNOS; dipeptide-like series) [%] | IC50 (rat nNOS; [2]) [µM] | IC50 (mouse iNOS; 1,2,4-oxadiazole series) [µM] | further results
1 | CCSC(=N)NCCC[C@H](N)C(=O)N[C@@H]1CCCN(Cc2ccccc2)C1 [Compound 8] | 15.6 | 25.6 | < 50 | – | – | –
2 | CCSC(=N)NCCC[C@H](N)C(=O)N[C@H]1CCCN(Cc2ccccc2O)C1 [Compound 9] | 51.1 | 51 | < 50 | – | – | –
3 | CCSC(=N)NCCC[C@H](N)C(=O)N[C@H]1CCCN(Cc2cc(O)ccc2O)C1 [Compound 10] | 2 | 23.9 | – | – | – | IC50 (bovine eNOS; dipeptide-like series): 26.7 µM
4 | CCSC(=N)NCCC[C@H](N)C(=O)N[C@@H]1CCCN(Cc2cc(O)ccc2O)C1 [Compound 11] | – | 73.4 | – | – | – | IC50 (bovine eNOS; dipeptide-like series): 25.4 µM
5 | CCSC(=N)NCCC[C@H](N)C(=O)N[C@H]1CCCN(Cc2ccccc2[N+](=O)[O-])C1 [Compound 12] | – | 46 | < 50 | – | – | inhibition at 100 µM (rat nNOS; dipeptide-like series, recombinant enzyme, 10 µM arginine, triplicate, NI = <50% inhibition at 100 μM, read-out: IC50 (μM) nNOS (Rat)): < 50%
6 | CCSC(=N)NCCC[C@H](N)C(=O)N[C@@H]1CCCN(Cc2ccccc2[N+](=O)[O-])C1 [Compound 13] | 30.6 | 78.9 | < 50 | – | – | –
7 | CCSC(=N)NCCC[C@H](N)C(=O)N[C@H]1CCCN(Cc2cc(O)ccc2[N+](=O)[O-])C1 [Compound 15] | 25.2 | 31.3 | < 50 | – | – | –
8 | CCSC(=N)NCCC[C@H](N)C(=O)N[C@H]1CCCN(Cc2cc(OC)c(OC)c(OC)c2)C1 [Compound 16] | 49.6 | 54.9 | < 50 | – | – | –
9 | CCSC(=N)NCCC[C@H](N)C(=O)N[C@H]1CCCN(Cc2cccc(C(F)(F)F)c2)C1 [Compound 20] | 15.4 | – | < 50 | – | – | inhibition at 100 µM (mouse iNOS; dipeptide-like series, read-out: IC50 (μM) iNOS (Mouse)): < 50%
10 | CCSC(=N)NCCC[C@H](N)C(=O)N[C@H]1CCCN(Cc2ccc(-c3cccc([N+](=O)[O-])c3)cc2)C1 [Compound 24] | 3.5 | 21.6 | – | – | – | IC50 (bovine eNOS; dipeptide-like series): 18 µM
11 | CCSC(=N)NCCC[C@H](N)C(=O)N[C@H]1CCCN(Cc2cccc(-c3ccccc3)c2)C1 [Compound 25] | 2.8 | 36.5 | < 50 | – | – | –
12 | CCSC(=N)NCCC[C@H](N)C(=O)N[C@H]1CCCN(Cc2cccc(-c3cccc([N+](=O)[O-])c3)c2)C1 [Compound 26] | 1.3 | 48.3 | < 50 | – | – | Reversal of LPS-induced reduction of cell viability (RAW 264.7 cells; RAW 264.7, LPS 1 µg/mL): none partially reversed the LPS effect; Effect on cell viability (MTT) (RAW 264.7 cells; RAW 264.7, absence of LPS): fully toxic
13 | CCSC(=N)NCCC[C@H](N)c1nc(CCN)no1 [Compound 28] | – | – | – | 58.9 | 83.7 | inhibition at 100 µM (bovine eNOS; 1,2,4-oxadiazole series): < 50%
14 | CCSC(=N)NCCC[C@H](N)c1nc(CCNCc2ccccc2)no1 [Compound 29] | – | – | – | 13.4 | 11.1 | IC50 (bovine eNOS; 1,2,4-oxadiazole series): 17.9 µM
15 | CCSC(=N)NCCC[C@H](N)c1nc(CCN(Cc2ccccc2)Cc2ccccc2)no1 [Compound 30] | – | – | – | 1.6 | 1.3 | Cells killed (RAW 264.7 cells; RAW 264.7, absence of LPS, 500 μM): 20%; Effect on cell viability (MTT) (RAW 264.7 cells; RAW 264.7, absence of LPS): did not modify cell viability; IC50 (bovine eNOS; 1,2,4-oxadiazole series): 99.6 µM
16 | CCSC(=N)NCCC[C@H](N)c1nc(CCN(Cc2ccccc2C)Cc2ccccc2C)no1 [Compound 31] | – | – | – | 9.9 | 11.1 | inhibition at 100 µM (bovine eNOS; 1,2,4-oxadiazole series): < 50%
17 | CCSC(=N)NCCC[C@H](N)c1nc(CCNCc2c(C)cccc2C)no1 [Compound 32] | – | – | – | 60.1 | 51.6 | –
18 | CCSC(=N)NCCC[C@H](N)c1nc(CCN(Cc2c(C)cccc2C)Cc2c(C)cccc2C)no1 [Compound 33] | – | – | – | 10.1 | 71.5 | inhibition at 100 µM (bovine eNOS; 1,2,4-oxadiazole series): < 50%
19 | CCSC(=N)NCCC[C@H](N)c1nc(CCN(Cc2cccc3ccccc23)Cc2cccc3ccccc23)no1 [Compound 34] | – | – | – | 1.4 | 4 | inhibition at 100 µM (bovine eNOS; 1,2,4-oxadiazole series): < 50%
20 | CCSC(=N)NCCC[C@H](N)c1nc(CCN(Cc2ccccc2O)Cc2ccccc2O)no1 [Compound 36] | – | – | – | 3.1 | 24.3 | IC50 (bovine eNOS; 1,2,4-oxadiazole series): 20.2 µM
21 | CCSC(=N)NCCC[C@H](N)c1nc(CCN(Cc2ccc([N+](=O)[O-])cc2)Cc2ccc([N+](=O)[O-])cc2)no1 [Compound 37] | – | – | – | 0.3 | 15.8 | Selectivity for nNOS against eNOS (rat nNOS; from IC50 values): ~40 fold; Selectivity for nNOS against iNOS (rat nNOS; from IC50 values): ~50 fold; Gain in nNOS inhibition potency over non-substituted compound 28 (rat nNOS; times more potent than 28): 200; IC50 (bovine eNOS; 1,2,4-oxadiazole series): 11.8 µM
22 | CCSC(=N)NCCC[C@H](N)c1nc(CCN(Cc2cccc([N+](=O)[O-])c2)Cc2cccc([N+](=O)[O-])c2)no1 [Compound 38] | – | – | – | 0.6 | 15.9 | IC50 (bovine eNOS; 1,2,4-oxadiazole series): 3.9 µM
23 | CCSC(=N)NCCC[C@H](N)c1nc(CCNCc2ccccc2[N+](=O)[O-])no1 [Compound 39] | – | – | – | 27 | 8 | IC50 (bovine eNOS; 1,2,4-oxadiazole series): 48.2 µM
24 | CCSC(=N)NCCC[C@H](N)c1nc(CCNCc2cc(O)ccc2[N+](=O)[O-])no1 [Compound 41] | – | – | – | 3 | 36.3 | –
25 | CCSC(=N)NCCC[C@H](N)c1nc(CCN(Cc2cc(O)ccc2[N+](=O)[O-])Cc2cc(O)ccc2[N+](=O)[O-])no1 [Compound 42] | – | – | – | 1.1 | 7 | inhibition at 100 µM (bovine eNOS; 1,2,4-oxadiazole series): < 50%
